From patent US9193733B2, “Piperidinylcyclobutyl substituted pyrrolopyridine and pyrrolopyrimidine derivatives as JAK inhibitors” (Incyte Corporation, priority 2012, dated 2015)

Legend:
Type in all cases: biochemical
[1] = target: T1, human JAK1 (a.a. 837-1142) catalytic domain (Homo sapiens, UniProt P23458); assay: In vitro JAK kinase assay (HTRF, phosphorylation of a biotinylated peptide), JAK1; settings: 1 mM ATP
T1 construct: human JAK1 (a.a. 837-1142) and JAK2 (a.a. 828-1132); His tag (N); made in house; host or cells: insect cells (baculovirus)
Procedure, shortened: (§1)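 His-tagged JAK1/JAK2 catalytic domains from baculovirus-infected insect cells phosphorylate 500 nM biotinylated peptide at 1 mM ATP in 50 mM Tris pH 7.8, 100 mM NaCl, 5 mM DTT, 0.01% BSA, 1 h at room temperature. EDTA-stopped; SA-APC/Eu-Py20 HTRF read after 40 min; IC50 determined.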

[2] = system: human JAK1 (a.a. 837-1142) catalytic domain; assay: as above; settings: ratio of JAK2 IC50 to JAK1 IC50, 1 mM ATP
Procedure, shortened: as §1

[3] = target: T2, human JAK2 (a.a. 828-1132) catalytic domain (Homo sapiens, UniProt O60674); assay: In vitro JAK kinase assay (HTRF, phosphorylation of a biotinylated peptide), JAK2; settings: 1 mM ATP
T2 construct: human JAK1 (a.a. 837-1142) and JAK2 (a.a. 828-1132); His tag (N); made in house; host or cells: insect cells (baculovirus)
Procedure, shortened: as §1

T2 sequence (O60674 828-1132): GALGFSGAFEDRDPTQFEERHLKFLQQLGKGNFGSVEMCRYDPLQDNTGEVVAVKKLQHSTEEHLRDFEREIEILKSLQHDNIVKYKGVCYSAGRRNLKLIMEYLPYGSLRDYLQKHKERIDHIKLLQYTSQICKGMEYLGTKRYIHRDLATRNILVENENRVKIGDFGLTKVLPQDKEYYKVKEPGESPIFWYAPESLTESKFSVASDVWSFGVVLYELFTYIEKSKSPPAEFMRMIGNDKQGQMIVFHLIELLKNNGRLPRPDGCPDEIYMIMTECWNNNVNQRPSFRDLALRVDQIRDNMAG
T1 sequence (P23458 849-1154): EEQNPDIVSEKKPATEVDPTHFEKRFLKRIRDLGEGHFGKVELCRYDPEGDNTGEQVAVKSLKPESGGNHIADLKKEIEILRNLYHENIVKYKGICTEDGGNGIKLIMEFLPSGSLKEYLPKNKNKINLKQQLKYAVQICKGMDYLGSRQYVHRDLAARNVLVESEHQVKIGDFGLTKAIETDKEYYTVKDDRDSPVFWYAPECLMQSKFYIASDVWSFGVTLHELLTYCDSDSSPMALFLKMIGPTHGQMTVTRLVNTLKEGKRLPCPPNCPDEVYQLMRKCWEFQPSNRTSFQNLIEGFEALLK

IC50 [1] [nM]	JAK2/JAK1 [2]	IC50 [3] [nM]	SMILES
< 20	>10	20 to 150	CCNCc1cc(NC2CCN([C@H]3C[C@](CC#N)(n4cc(-c5ncnc6[nH]ccc56)cn4)C3)CC2)nc(C(F)(F)F)c1 [Example 32, {trans-3-(4-{[4-[(ethylamino)methyl]-6-(trifluoromethyl)pyridin-2-yl]amino}piperidin-1-yl)-1-[4-(7H-pyrrolo[2,3-d]pyrimidin-4-yl)-1H-pyrazol-1-yl]cyclobutyl}acetonitrile]
< 20	>10	20 to 150	N#CC[C@]1(n2cc(-c3ncnc4[nH]ccc34)cn2)C[C@H](N2CCC(Nc3cc(CNCCO)nc(C(F)(F)F)n3)CC2)C1 [Example 29, {trans-3-(4-{[6-{[(2-hydroxyethyl)amino]methyl}-2-(trifluoromethyl)pyrimidin-4-yl]amino}piperidin-1-yl)-1-[4-(7H-pyrrolo[2,3-d]pyrimidin-4-yl)-1H-pyrazol-1-yl]cyclobutyl}acetonitrile]
< 20	>10	20 to 150	N#CC[C@]1(n2cc(-c3ncnc4[nH]ccc34)cn2)C[C@H](N2CCC(Nc3cc(CO)cc(C(F)(F)F)n3)CC2)C1 [Example 31, {trans-3-(4-{[4-(hydroxymethyl)-6-(trifluoromethyl)pyridin-2-yl]amino}piperidin-1-yl)-1-[4-(7H-pyrrolo[2,3-d]pyrimidin-4-yl)-1H-pyrazol-1-yl]cyclobutyl}acetonitrile]
< 20	>10	150 to 500	CC1(C)CN(C(=O)c2cc(OC3CCN([C@H]4C[C@](CC#N)(n5cc(-c6ncnc7[nH]ccc67)cn5)C4)CC3)nc(C(F)(F)F)c2)C1 [Example 26, {trans-3-(4-{[4-[(3,3-dimethylazetidin-1-yl)carbonyl]-6-(trifluoromethyl)pyridin-2-yl]oxy}piperidin-1-yl)-1-[4-(7H-pyrrolo[2,3-d]pyrimidin-4-yl)-1H-pyrazol-1-yl]cyclobutyl}acetonitrile]
< 20	>10	20 to 150	N#CC[C@]1(n2cc(-c3ncnc4[nH]ccc34)cn2)C[C@H](N2CCC(Oc3cc(C4(O)COC4)cc(C(F)(F)F)n3)CC2)C1 [Example 49, {trans-3-(4-{[4-(3-hydroxyoxetan-3-yl)-6-(trifluoromethyl)pyridin-2-yl]oxy}piperidin-1-yl)-1-[4-(7H-pyrrolo[2,3-d]pyrimidin-4-yl)-1H-pyrazol-1-yl]cyclobutyl}acetonitrile]
< 20	>10	20 to 150	N#CC[C@]1(n2cc(-c3ncnc4[nH]ccc34)cn2)C[C@H](N2CCC(Nc3cc(CN4CCOCC4)cc(C(F)(F)F)n3)CC2)C1 [Example 40, {trans-3-(4-{[4-(morpholin-4-ylmethyl)-6-(trifluoromethyl)pyridin-2-yl]amino}piperidin-1-yl)-1-[4-(7H-pyrrolo[2,3-d]pyrimidin-4-yl)-1H-pyrazol-1-yl]cyclobutyl}acetonitrile]
< 20	>10	20 to 150	N#CC[C@]1(n2cc(-c3ncnc4[nH]ccc34)cn2)C[C@H](N2CCC(Oc3cc(CN[C@@H]4CCOC4)cc(C(F)(F)F)n3)CC2)C1 [Example 8, [trans-1-[4-(7H-pyrrolo[2,3-d]pyrimidin-4-yl)-1H-pyrazol-1-yl]-3-(4-{[4-{[(3R)-tetrahydrofuran-3-ylamino]methyl}-6-(trifluoromethyl)pyridin-2-yl]oxy}piperidin-1-yl)cyclobutyl]acetonitrile]
